The values that follow come from patent US8394950B2, “Analogues of coformycin and their use for treating protozoan parasite infections” (Industrial Research Limited, priority 2006, dated 2013).

The subject of data set [1] is P. falciparum. Kind of data set: Visual inspection of parasitemia in infected red blood cells after 48 hours. Type of data set: cell-based. As to conditions: for parasitemia after 48 hours: 1% parasitemia initially.
Data set [2] deals with Plasmodium knowlesi. The settings on record: single dose, primates with Plasmodium knowlesi; cited from earlier work.
The conditions of data set [3]: in vivo; cited from earlier work.
Data set [4] addresses T1, PfADA (Plasmodium falciparum, UniProt Q8IJA9).
T1 sequence (Q8IJA9 1-367): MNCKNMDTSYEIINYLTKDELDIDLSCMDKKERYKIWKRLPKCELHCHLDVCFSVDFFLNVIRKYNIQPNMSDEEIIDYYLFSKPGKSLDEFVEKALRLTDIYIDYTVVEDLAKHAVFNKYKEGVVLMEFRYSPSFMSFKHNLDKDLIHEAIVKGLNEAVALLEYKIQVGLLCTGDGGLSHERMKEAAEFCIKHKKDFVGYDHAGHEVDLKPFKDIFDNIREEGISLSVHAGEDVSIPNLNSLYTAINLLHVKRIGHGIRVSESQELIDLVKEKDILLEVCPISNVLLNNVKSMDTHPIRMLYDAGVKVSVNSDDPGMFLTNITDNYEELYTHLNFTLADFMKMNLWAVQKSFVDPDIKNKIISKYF
Kind of data set: biochemical. It is filed as biochemical. As for the experimental part: (§1) Inhibition studies measured both initial and slow-onset rates to establish both the initial dissociation constant (Ki) and the steady-state dissociation constant (Ki*) as previously described [Kicska, G. A., Tyler, P. C., Evans, G. B., Furneaux, R. H., Kim, K., and Schramm, V. L. (2002) J Biol Chem 277, 3219-3225.]. Kd is the lower of these values.
(§2) Concentrations of inhibitors were determined spectrophotometrically using the extinction coefficient of 8250 M^−1cm^−1 at 282 nm.
(§3) (V. L. Schramm, D. C. Baker, Biochemistry, 1985, 24, 641-646). Inhibitor concentrations ranging from 10 μM to 2 nM were used for determination of the inhibition constants and an enzyme concentration of 1 nM. The Ki values were determined by fitting the initial rate and inhibitor concentrations to the following expression of competitive inhibition: (V′o/Vo)=(KM+[S])/(KM+[S]+(KM[I]/Ki)) where V′o is the initial rate in the presence of inhibitor, and Vo is the initial rate in the absence of inhibitor, [I] is the inhibitor concentration, and [S] is the substrate concentration.

Data set [5] has as its target T2, HsADA (Homo sapiens, UniProt P00813).
T2 construct: Human adenosine deaminase from human erythrocytes; purchased Sigma-Aldrich Chemical Company; host or cells: human erythrocytes
T2 sequence (P00813 1-363): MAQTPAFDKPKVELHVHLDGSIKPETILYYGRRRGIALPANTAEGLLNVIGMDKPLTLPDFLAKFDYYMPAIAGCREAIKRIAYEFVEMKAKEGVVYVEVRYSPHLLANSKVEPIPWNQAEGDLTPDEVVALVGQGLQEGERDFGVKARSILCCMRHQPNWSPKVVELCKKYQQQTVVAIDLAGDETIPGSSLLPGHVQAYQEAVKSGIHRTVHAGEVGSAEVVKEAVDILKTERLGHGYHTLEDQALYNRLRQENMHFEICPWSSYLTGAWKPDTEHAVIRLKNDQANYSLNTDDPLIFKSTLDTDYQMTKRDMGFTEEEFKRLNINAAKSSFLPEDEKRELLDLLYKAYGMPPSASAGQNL
Kind of data set: Inhibition of human adenosine deaminase (adenosine to inosine, absorbance change). It is filed as biochemical. As for the experimental part:
as §1, §2, §3

For data set [6], the target named is T3, BtADA (Bos taurus, UniProt P56658).
T3 construct: bovine adenosine deaminase from bovine spleen; purchased Sigma-Aldrich Chemical Company; host or cells: bovine spleen
T3 sequence (P56658 1-363): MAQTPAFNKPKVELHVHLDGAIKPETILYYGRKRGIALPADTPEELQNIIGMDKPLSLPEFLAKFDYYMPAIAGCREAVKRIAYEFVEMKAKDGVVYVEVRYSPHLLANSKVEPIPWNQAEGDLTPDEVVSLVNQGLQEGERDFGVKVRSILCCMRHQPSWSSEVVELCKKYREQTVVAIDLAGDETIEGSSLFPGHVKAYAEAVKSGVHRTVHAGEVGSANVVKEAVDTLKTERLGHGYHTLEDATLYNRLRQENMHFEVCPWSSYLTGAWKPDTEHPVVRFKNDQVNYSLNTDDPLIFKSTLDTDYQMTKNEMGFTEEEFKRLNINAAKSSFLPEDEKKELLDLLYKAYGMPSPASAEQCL
Kind of data set: Inhibition of bovine adenosine deaminase (adenosine to inosine, absorbance change). Type of data set: biochemical. On the procedure: as §1, §2, §3

The test system of data set [7] is P. falciparum. The settings on record: cited from earlier work; for killing of P. falciparum in culture (in words): in culture / growing in human erythrocytes.
Data set [8] deals with P. falciparum strain 3D7. Kind of data set: P. falciparum culture kill curves, uptake of tritiated ethanolamine in red blood cells. It is filed as cell-based. As to conditions: for IC50: read-out: IC50, prevention of growth of P. falciparum (uptake of tritiated ethanolamine). As for the experimental part: Human erythrocytes were collected from local volunteers under protocol CCI 00-31 or CCI 99-240 of the Albert Einstein College of Medicine. Cultures of P. falciparum strain 3D7 were grown in RPMI supplemented with 0.5% Albumax II (Invitrogen) and were sorbitol-synchronized twice before initiation of the 72 hour assay in 96-well plates with a total volume of 200 μL at 1% hematocrit and 0.8% parasitemia (100% rings). […] Drugs were dissolved in water and diluted with media prior to addition to cultures. […] After 54 h, cell cultures were frozen and thawed to disrupt cells, and the mixtures were harvested on glass fiber filters. Filters were counted in a Winspectral 1414 scintillation counter. Experiments were done twice with six replicate wells for each experiment. Individual data points more than two standard deviations from the mean were discarded. For some experiments, parasitemias were counted on Giemsa-stained smears of cultures treated in parallel.

The mark [9] stands for this setting: methylthioadenosine (100 μM) alone.
[10] abbreviates: initial dissociation constant, 100 μM adenosine, pH 7.0, 30° C., read-out: PfADA Ki.
The mark [11] stands for this setting: no detectible slow onset, read-out: dissociation constants (PfADA).
Setting [12] is: methylthioadenosine (100 μM) plus compound (10 μM).

Where two headings read alike, the source gives them in different places. A value given as a limit tells only on which side of the number the result lay.

As for 5′-methylthioadenosine, in data set [1] (setting [9]), the “parasitemia after 48 hours” value is recorded as 8% and the “parasites in the ring form after 48 hours” value was determined as 97%.
As for `OC[C@H]1O[C@@H](n2cnc3c2NC=NC[C@H]3O)C[C@@H]1O` [2′-deoxycoformycin], in data set [2], the “effect on parasitemia (in words)” value is recorded as “dramatically reduced parasitemia”. Further, the “toxicity in mammals (in words)” value in data set [3] is reported as “highly toxic”.
For `CSC[C@H]1O[C@@H](n2cnc3c2N=CNC[C@H]3O)C[C@@H]1O` [5′-MeS-2′-deoxycoformycin (16), (8R)-3-(2′-deoxy-5′-methylthio-β,D-erythro-pentofuranosyl)-8-hydroxy-3,6,7,8-tetrahydroimidazo[4,5-d][1,3]diazepine], the Ki in data set [4] (setting [10]) is 2.3 ± 0.8 nM; in data set [4] (slow onset equilibrium dissociation constant, read-out: PfADA Ki^a) it was 0.73 ± 0.22 nM; in data set [5] (read-out: HsADA Ki), more than 10000 nM; in data set [6] (read-out: BtADA Ki), more than 10000 nM.
In the case of `CSC[C@H]1N[C@@H](c2c[nH]c3c(=O)[nH]cnc23)[C@H](O)[C@@H]1O` [5′-Methylthio-Immucillin-H], the results for the “killing of P. falciparum in culture (in words)” value in data set [7] and in data set [7] (listed as 5′-methylthio-Immucillin-H) were “able to kill P. falciparum growing in human erythrocytes” and “kill P. falciparum in culture”, respectively.
In the case of `O[C@@H]1CNC=Nc2c1ncn2[C@H]1C[C@H](O)[C@@H](CSc2ccccc2)O1` [5′-PhS-2′-deoxycoformycin (18), (8R)-3-(2′-deoxy-5′-phenylthio-β,D-erythro-pentofuranosyl)-8-hydroxy-3,6,7,8-tetrahydroimidazo[4,5-d][1,3]diazepine], the “inhibition of PfADA (in words)” value in data set [4] is listed as “no detectible slow onset”. In addition, the results for the Ki in data set [4] (setting [10]), in data set [4] (setting [11]) and in data set [6] (read-out: BtADA Ki) were 61 ± 11 nM, 61 nM and more than 10000 nM, respectively.
In the case of `CCCSC[C@H]1O[C@@H](n2cnc3c2N=CNC[C@H]3O)C[C@@H]1O` [5′-PrS-2′-deoxycoformycin (17), (8R)-3-(2′-deoxy-5′-propylthio-β,D-erythro-pentofuranosyl)-8-hydroxy-3,6,7,8-tetrahydroimidazo[4,5-d][1,3]diazepine], in data set [4], the “inhibition of PfADA (in words)” value is “no detectible slow onset”. Also, the Ki in data set [4] (setting [10]) is 12 ± 1 nM; in data set [4] (setting [11]) it was 12 nM; in data set [5] (read-out: HsADA Ki) it was more than 10000 nM; in data set [6] (read-out: BtADA Ki), more than 10000 nM.
Regarding `OC[C@H]1O[C@@H](n2cnc3c2N=CNC[C@H]3O)[C@H](O)[C@@H]1O` [Coformycin], the “potency relative to 5′-methylthiocoformycin (times more potent)” value in data set [4] (PfADA) is “about 5 times”. Further, the Ki was 0.68 ± 0.07 nM in data set [4] (PfADA Ki (nM), initial dissociation constant, 100 μM adenosine, pH 7.0, 30° C.); 0.08 ± 0.02 nM in data set [4] (PfADA Ki^a (nM), slow onset equilibrium dissociation constant); 0.027 to 0.11 nM in data set [4] (tightest dissociation constants, slow onset inhibition, range over all three enzymes (BtADA, HsADA, PfADA)); 13.9 ± 3.4 nM in data set [5] (HsADA Ki (nM), initial dissociation constant, 100 μM adenosine, pH 7.0, 30° C., >10,000 = no inhibition at 10 μM); 0.11 ± 0.02 nM in data set [5] (HsADA Ki^a (nM), slow onset equilibrium dissociation constant); 1.1 ± 0.4 nM in data set [6] (BtADA Ki (nM), initial dissociation constant, 100 μM adenosine, pH 7.0, 30° C., >10,000 = no inhibition at 10 μM). The compound also came in with a Ki in data set [6] (BtADA Ki^a (nM), slow onset equilibrium dissociation constant) of 0.06 ± 0.01 nM. Further, the “parasitemia after 48 hours” value in data set [1] (setting [12]) stood at 1%. In addition, the “parasites in the trophozoite form after 48 hours” value in data set [1] (setting [12]) is listed as 100%. Moreover, in data set [8] (Plasmodium falciparum, 3D7, Erythrocyte, 72 h), the half-inhibitory concentration (IC50) (commonly the concentration that inhibits the measured activity by half) was found to be 3.5 nM. Also, in data set [5] (mammalian ADAs), the “inhibition of human ADA (in words)” value was “inhibiting mammalian ADAs with equivalent potency”. In addition, in data set [6] (mammalian ADAs), the “inhibition of bovine ADA (in words)” value was “inhibiting mammalian ADAs with equivalent potency”.
With `O=c1[nH]cnc2c([C@@H]3N[C@H](CO)[C@@H](O)[C@H]3O)c[nH]c12` [Immucillin-H], the “time to purine-less death” value in data set [7] (P. falciparum-infected erythrocytes, simultaneous inhibition of host and parasite PNP) is not above 24 h.
Turning to “(8R)-8-hydroxy-3-(5-methylthio-β-D-ribofuranosyl)-3,6,7,8-tetrahydroimidazo[4,5-d][1,3]diazepine [5′-MeS-Coformycin (8)]”, in data set [1] (setting [12]), the “parasitemia after 48 hours” value came out at 1% and the “parasites in the trophozoite form after 48 hours” value was determined as 100%. Also, in data set [8], the “killing of P. falciparum growing in human erythrocytes (in words)” value is recorded as “kills P. falciparum growing in human erythrocytes”. Moreover, the IC50 in data set [8] (strain 3D7 in red blood cells, 72 hour assay, no hypoxanthine supplementation) worked out at 62 nM.
